Measured values as given in patent US7022836B2, “Methods for producing and transforming cassava protoplasts” (National Starch and Chemical Investment Holding Corporation, priority 1999, dated 2006).
Marks after values point to notes of the source that are not given here.

Tested on: cassava leaf explants
Test: Primary somatic embryogenesis from leaf explants (mature embryos per cultured leaf explant)
Format: cell-based
Details: for leaf explants that formed ME / number of ME/CLE: maximum
Protocol: The procedure to obtain FEC is outlined in FIG. 1. 1t starts with the induction of primary embryos. Primary embryos are formed in a two step procedure. In the first step explants are cultured on medium supplemented with salts and vitamins (preferably Murashige and Skoog (1962)), a carbohydrate source (for example 20 g/l sucrose) and an auxin (e.g. 1–8 mg/l picloram, or dicamba or 2,4-D) for the initiation of embryos. After 10 to 15 days on this first medium bipolar torpedo shaped embryos are formed. […] After transfer of the explants with torpedo shaped embryos to a step 2 medium (the same medium as step 1 but without an auxin, with eventually the addition of cytokinins) the torpedo shaped embryos become mature.
In the presently used protocol there is genotypic variation in the number of mature embryos formed per cultured explant. The genotypes M.Col1505, M.Col22 and Gading gave the highest numbers of mature embryos per cultured leaf explant (ME/CLE). However, the number of mature embryos formed was low. In M.Col22 a maximum of 22% of the leaf explants isolated from in vitro grown plants and cultured on a step 1 medium with 4 mg/l 2,4-D, formed ME with a maximum number of 0.8 ME/CLE. On a step 1 medium with 8 mg/l 2,4-D a maximum of 49% of the leaf explants formed ME with a maximum number of 3.5 ME/CLE.
Mathews et al. (1993) improved the efficiency of primary embryogenesis in the genotype M.Co11505 by transferring explants after 15 days of step 1 medium to a growth regulator-free medium supplemented with 0.5% charcoal. On this medium maturation was improved and as a result the number of mature embryos increased from 0.4 in the control to 3,4 ME/CLE. The best results were obtained if donor plants were pretreated with auxins as 2,4-D or picloram or Dicamba. For this, plants were grown in liquid MS20 medium and supplied with the auxin (final concentration 8 mg/l) after 12 days of growth. Two days later leaf explants were isolated of the donor plants and cultured on step 1 medium with 8 mg/l 2,4-D, picloram or Dicamba.

[1] = M.Col22, step 1 medium with 4 mg/l 2,4-D
[2] = M.Col22, step 1 medium with 8 mg/l 2,4-D

O=C(O)COc1ccc(Cl)cc1Cl [2,4-D, 2,4-dichlorophenoxyacetic acid]
leaf explants that formed ME [1]: ≤ 22%
number of ME/CLE [1]: ≤ 0.8 ME/CLE
leaf explants that formed ME [2]: ≤ 49%
number of ME/CLE [2]: ≤ 3.5 ME/CLE
primary mature embryos per cultured leaf explant after 2,4-D pretreatment (genotype M.Col22, pretreatment yes): 9.4 # mature embryos per cultured leaf explant
primary mature embryos per cultured leaf explant after 2,4-D pretreatment (genotype TMS 4(2)1244, pretreatment yes): 0 # mature embryos per cultured leaf explant
primary mature embryos per cultured leaf explant after 2,4-D pretreatment (genotype TMS 30001, pretreatment yes): 0 # mature embryos per cultured leaf explant
primary mature embryos per cultured leaf explant after 2,4-D pretreatment (genotype TMS 30211, pretreatment yes): 0 # mature embryos per cultured leaf explant
primary mature embryos per cultured leaf explant after 2,4-D pretreatment (genotype TMS 30395, pretreatment yes): 0.1 # mature embryos per cultured leaf explant
primary mature embryos per cultured leaf explant after 2,4-D pretreatment (genotype TMS 30555, pretreatment yes): 0.7 # mature embryos per cultured leaf explant
primary mature embryos per cultured leaf explant after 2,4-D pretreatment (genotype TMS 30572, pretreatment yes): 0 # mature embryos per cultured leaf explant
primary mature embryos per cultured leaf explant after 2,4-D pretreatment (genotype TMS 50395, pretreatment yes): <0.1 # mature embryos per cultured leaf explant
primary mature embryos per cultured leaf explant after 2,4-D pretreatment (genotype TMS 60444, pretreatment yes): 1.1 # mature embryos per cultured leaf explant
primary mature embryos per cultured leaf explant after 2,4-D pretreatment (genotype TMS 60506, pretreatment yes): <0.1 # mature embryos per cultured leaf explant
primary mature embryos per cultured leaf explant after 2,4-D pretreatment (genotype TMS 90059, pretreatment yes): <0.1 # mature embryos per cultured leaf explant
primary mature embryos per cultured leaf explant after 2,4-D pretreatment (genotype TMS 90853, pretreatment yes): 0.2 # mature embryos per cultured leaf explant
